Experimental data: patent US7700577B2, “Carbohydrate based anti-bacterials” (Alchemia Limited, priority 2002, dated 2010)

Legend:
[1] = test system: E. coli; test: MIC testing, broth microdilution (NCCLS), E. coli; format: cell-based; details: E. coli after 24 hours exposure
Text: (§1) The broth microdilution format of the National Committee for Clinical Laboratory Standards (NCCLS) approved standard for susceptibility tests as outlined in M7-A4 “methods for dillution Antimicrobial susceptibility tests for bacteria that grow aerobically; approved standard—fifth edition”, January 2000 was utilized for minimum inhibitory concentration testing in Mueller-Hinton broth. The broth for Streptococcus pyogenes testing was supplemented with 2% laked horse blood. A positive result in initial testing was determined by complete inhibition of macroscopic bacterial growth at a concentration of 128 micrograms per mL after incubation for 16 to 24 hours at 37 degrees C. In the case of Micrococcus luteus, incubation was at 30 degrees C. […] Bacterial Types Are: • SA24 S. aureus after 24 hours exposure • SA48 S. aureus after 48 hours exposure • EC24 E. coli after 24 hours exposure

[2] = test system: S. aureus; test: MIC testing, broth microdilution (NCCLS), S. aureus; format: cell-based, Staphylococcus aureus; details: for SA24 (MIC): S. aureus after 24 hours exposure; for SA48 (MIC): S. aureus after 48 hours exposure
Text: as §1

| Structure (SMILES) | EC24 (MIC) [1] | SA24 (MIC) [2] | SA48 (MIC) [2] |
| --- | --- | --- | --- |
| CCCCCC(C)CCC(=O)N[C@H]1C(CO)OCC(NC(=N)Nc2cccc(C(F)(F)F)c2)[C@H]1O[C@@H]1OC(CO)[C@@H](O)[C@H](O)C1NC(=N)Nc1cccc(C(F)(F)F)c1 (stereo partly shown) [compound 19] | + (+ indicates an MIC value of less than 128 micrograms per mL) | + (+ indicates an MIC value of less than 128 micrograms per mL) | + (+ indicates an MIC value of less than 128 micrograms per mL) |
| N=C(Nc1cccc(C(F)(F)F)c1)NC1[C@H](O[C@@H]2C(NC(=N)Nc3cccc(C(F)(F)F)c3)COC(CO)[C@@H]2NCc2ccc(-c3ccccc3)cc2)OC(CO)[C@@H](O)[C@@H]1O (stereo partly shown) [compound 20] | + (+ indicates an MIC value of less than 128 micrograms per mL) | + (+ indicates an MIC value of less than 128 micrograms per mL) | + (+ indicates an MIC value of less than 128 micrograms per mL) |
| N=C(Nc1cccc(C(F)(F)F)c1)NC1[C@H](O[C@@H]2C(NC(=N)Nc3cccc(C(F)(F)F)c3)COC(CO)[C@@H]2NC(=N)Nc2ccc(-c3ccccc3)cc2)OC(CO)[C@@H](O)[C@@H]1O (stereo partly shown) [compound 21] | + (+ indicates an MIC value of less than 128 micrograms per mL) | + (+ indicates an MIC value of less than 128 micrograms per mL) | + (+ indicates an MIC value of less than 128 micrograms per mL) |
| CC(C)=CCCC(C)=CCN[C@H]1C(CO)OCC(NC(=N)Nc2cccc(C(F)(F)F)c2)[C@H]1O[C@@H]1OC(CO)[C@@H](O)[C@H](O)C1NC(=N)Nc1cccc(C(F)(F)F)c1 (stereo partly shown) [compound 23] | + (+ indicates an MIC value of less than 128 micrograms per mL) | + (+ indicates an MIC value of less than 128 micrograms per mL) | + (+ indicates an MIC value of less than 128 micrograms per mL) |
| CC(C)=CCCC(C)=CCCC(C)=CCN[C@H]1C(CO)OCC(NC(=N)Nc2cccc(C(F)(F)F)c2)[C@H]1O[C@@H]1OC(CO)[C@@H](O)[C@H](O)C1NC(=N)Nc1cccc(C(F)(F)F)c1 (stereo partly shown) [compound 24] | + (+ indicates an MIC value of less than 128 micrograms per mL) | + (+ indicates an MIC value of less than 128 micrograms per mL) | + (+ indicates an MIC value of less than 128 micrograms per mL) |
| N=C(Nc1cccc(C(F)(F)F)c1)NC1[C@H](O[C@@H]2C(NC(=N)Nc3cccc(C(F)(F)F)c3)COC(CO)[C@@H]2NC(=O)C(N)c2ccc(-c3ccccc3)cc2)OC(CO)[C@@H](O)[C@@H]1O (stereo partly shown) [compound 25] | + (+ indicates an MIC value of less than 128 micrograms per mL) | + (+ indicates an MIC value of less than 128 micrograms per mL) | + (+ indicates an MIC value of less than 128 micrograms per mL) |
| N=C(Nc1cccc(C(F)(F)F)c1)NC1[C@H](O[C@@H]2C(NC(=N)Nc3cccc(C(F)(F)F)c3)COC(CO)[C@@H]2NC(=O)C(N)Cc2ccc(-c3ccccc3)cc2)OC(CO)[C@@H](O)[C@@H]1O (stereo partly shown) [compound 26] | + (+ indicates an MIC value of less than 128 micrograms per mL) | + (+ indicates an MIC value of less than 128 micrograms per mL) | + (+ indicates an MIC value of less than 128 micrograms per mL) |
| O=C(Nc1cccc(C(F)(F)F)c1)NC1[C@H](O[C@@H]2C(NS(=O)(=O)c3cccc(C(F)(F)F)c3)COC(CO)[C@@H]2NC(=O)c2ccc(-c3ccccc3)cc2)OC(CO)[C@@H](O)[C@@H]1O (stereo partly shown) [compound 37] | − (− indicates an MIC of greater then 128 micrograms per mL) | + (+ indicates an MIC value of less than 128 micrograms per mL) | + (+ indicates an MIC value of less than 128 micrograms per mL) |
| Cc1ccc(S(=O)(=O)NC2COC(CO)[C@H](NC(=O)c3ccc(-c4ccccc4)cc3)[C@@H]2O[C@@H]2OC(CO)[C@@H](O)[C@H](O)C2NC(=O)Nc2cccc(C(F)(F)F)c2)cc1 (stereo partly shown) [compound 39] | − (− indicates an MIC of greater then 128 micrograms per mL) | + (+ indicates an MIC value of less than 128 micrograms per mL) | + (+ indicates an MIC value of less than 128 micrograms per mL) |
| Cc1ccc(NC(=N)NC2[C@H](O[C@@H]3C(NC(=O)Nc4cccc(C(F)(F)F)c4)COC(CO)[C@@H]3NC(=O)c3ccc(-c4ccccc4)cc3)OC(CO)[C@@H](O)[C@@H]2O)cc1 (stereo partly shown) [compound 46] | − (− indicates an MIC of greater then 128 micrograms per mL) | – | + (+ indicates an MIC value of less than 128 micrograms per mL) |
| O=C(Nc1cccc(C(F)(F)F)c1)NC1COC(CO)[C@H](NC(=O)c2ccc(-c3ccccc3)cc2)[C@@H]1O[C@@H]1OC(CO)[C@@H](O)[C@H](O)C1NS(=O)(=O)c1cccc(C(F)(F)F)c1 (stereo partly shown) [compound 48] | − (− indicates an MIC of greater then 128 micrograms per mL) | + (+ indicates an MIC value of less than 128 micrograms per mL) | + (+ indicates an MIC value of less than 128 micrograms per mL) |
| Cc1ccc(S(=O)(=O)NC2[C@H](O[C@@H]3C(NC(=O)Nc4cccc(C(F)(F)F)c4)COC(CO)[C@@H]3NC(=O)c3ccc(-c4ccccc4)cc3)OC(CO)[C@@H](O)[C@@H]2O)cc1 (stereo partly shown) [compound 49] | − (− indicates an MIC of greater then 128 micrograms per mL) | – | + (+ indicates an MIC value of less than 128 micrograms per mL) |
